Assay results from patent publication US20180099931A1 (AbbVie S.à.r.l., priority 2016, published 2018).
Like-named read-outs stand apart in the source and are kept apart here.

Molecular target: T1, F508delCFTR (Homo sapiens, UniProt P13569, DEL508-508)
T1 construct: expressed in transfected cells; host or cells: CFBE41o- human lung-derived epithelial cells (CFBE4lo-F508delCFTR-HRP), doxycycline-inducible
Test: Cell Surface Expression-Horse Radish Peroxidase (CSE-HRP) Assay;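 as to Maximum % activity (with co-corrector): co-corrector and positive control are both the same reference corrector at 2 µM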;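 as to Maximum % activity (without co-corrector): percent of the 2 µM on-plate positive control corrector response above DMSO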
Assay type: cell-based
Conditions: for Maximum % activity (with co-corrector): with co-corrector (2 μM); for Maximum % activity (with co-corrector) / Emax: maximum at any tested concentration, normalized to on-plate positive control; for Emax: without co-corrector, read-out: Maximum % activity (without co-corrector)

[1] = test compound without co-corrector, read-out: EC50 (without co-corrector)
[2] = with co-corrector (2 μM of 3-[(2R,4R)-4-({[1-(2,2-difluoro-1,3-benzodioxol-5-yl)cyclopropyl]carbonyl}amino)-7-methoxy-3,4-dihydro-2H-chromen-2-yl]benzoic acid), read-out: EC50 (with co-corrector)

T1 sequence (P13569 with tags, fused parts or gaps DEL508-508): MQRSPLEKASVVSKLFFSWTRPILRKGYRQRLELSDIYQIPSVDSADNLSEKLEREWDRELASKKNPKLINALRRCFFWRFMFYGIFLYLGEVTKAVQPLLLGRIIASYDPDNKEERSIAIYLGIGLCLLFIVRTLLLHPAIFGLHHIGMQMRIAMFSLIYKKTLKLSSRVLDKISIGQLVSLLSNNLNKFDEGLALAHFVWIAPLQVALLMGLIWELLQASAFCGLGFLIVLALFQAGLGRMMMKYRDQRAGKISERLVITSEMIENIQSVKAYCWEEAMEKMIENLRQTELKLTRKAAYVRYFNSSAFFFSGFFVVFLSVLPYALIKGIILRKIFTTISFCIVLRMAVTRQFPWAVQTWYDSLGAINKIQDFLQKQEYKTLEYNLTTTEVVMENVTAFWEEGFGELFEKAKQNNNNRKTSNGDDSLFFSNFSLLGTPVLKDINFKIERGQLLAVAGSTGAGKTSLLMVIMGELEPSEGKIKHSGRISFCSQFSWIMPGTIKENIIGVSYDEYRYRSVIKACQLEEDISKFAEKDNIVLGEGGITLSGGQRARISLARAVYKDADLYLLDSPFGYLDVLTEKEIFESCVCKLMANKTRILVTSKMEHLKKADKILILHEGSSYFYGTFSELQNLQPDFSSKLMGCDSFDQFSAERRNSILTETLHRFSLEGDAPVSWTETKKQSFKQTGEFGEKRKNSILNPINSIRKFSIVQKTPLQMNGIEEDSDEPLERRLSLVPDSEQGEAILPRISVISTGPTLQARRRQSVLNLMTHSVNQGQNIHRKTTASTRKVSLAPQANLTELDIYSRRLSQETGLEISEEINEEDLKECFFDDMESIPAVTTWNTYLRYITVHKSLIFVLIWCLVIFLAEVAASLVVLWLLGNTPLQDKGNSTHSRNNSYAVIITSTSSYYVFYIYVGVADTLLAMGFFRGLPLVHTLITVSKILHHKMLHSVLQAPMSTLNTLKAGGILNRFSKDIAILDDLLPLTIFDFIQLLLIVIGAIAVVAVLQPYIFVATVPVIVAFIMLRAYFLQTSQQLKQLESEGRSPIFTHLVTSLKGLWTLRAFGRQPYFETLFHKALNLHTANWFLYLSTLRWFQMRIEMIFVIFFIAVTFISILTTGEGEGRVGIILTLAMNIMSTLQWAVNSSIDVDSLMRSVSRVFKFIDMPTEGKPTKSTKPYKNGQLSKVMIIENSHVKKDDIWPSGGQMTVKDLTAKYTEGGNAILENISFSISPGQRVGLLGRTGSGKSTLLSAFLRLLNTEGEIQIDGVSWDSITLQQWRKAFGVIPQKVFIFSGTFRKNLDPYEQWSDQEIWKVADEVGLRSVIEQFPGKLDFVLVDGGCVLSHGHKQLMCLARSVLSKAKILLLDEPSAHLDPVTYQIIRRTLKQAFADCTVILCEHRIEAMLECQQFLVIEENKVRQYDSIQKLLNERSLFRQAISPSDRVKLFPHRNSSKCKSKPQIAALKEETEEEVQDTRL

Row | Structure (SMILES) | EC50 [1] [nM] | EC50 [2] [nM] | Maximum % activity (with co-corrector) | Emax [%]
1 | COc1ccc(C(C)(C)C)cc1CN[C@H]1[C@H](C(C)(C)C)[C@@H](C(=O)O)N(C(=O)c2ccc3cccc(F)c3n2)[C@H]1c1ccccc1 [Example I-93] | 1000 to 10000 | 1000 to 10000 | +++ (≥350) | 100 to 200
2 | COc1ccc(CC(C)C)cc1CN[C@H]1[C@H](C(C)(C)C)[C@@H](C(=O)O)N(C(=O)C2CCCCC2)[C@H]1c1ccccc1 [Example I-94] | < 1000 | < 1000 | +++ (≥350) | > 200
3 | COc1ccc(C(C)(C)C)cc1CN[C@H]1[C@H](C(C)(C)C)[C@@H](C(=O)O)N(C(=O)Cc2c[nH]cn2)[C@H]1c1ccccc1 [Example I-98] | 1000 to 10000 | 1000 to 10000 | ++ (≥150 and <350) | < 100
4 | COc1ccc(C(C)(C)C)cc1CN[C@H]1[C@H](C(C)(C)C)[C@@H](C(=O)O)N(C(=O)CC2(O)CCCC2)[C@H]1c1ccccc1 [Example I-99] | 1000 to 10000 | 1000 to 10000 | +++ (≥350) | > 200
5 | COc1ccc(C(C)(C)C)cc1CN[C@H]1[C@H](C(C)(C)C)[C@@H](C(=O)O)N(C(=O)CN2CCCCCC2)[C@H]1c1ccccc1 [Example I-100] | 1000 to 10000 | 1000 to 10000 | +++ (≥350) | > 200
6 | CCn1ccc(=O)c(C(=O)N2[C@H](C(=O)O)[C@@H](C(C)(C)C)[C@H](NCc3cc(C(C)(C)C)ccc3OC)[C@@H]2c2ccccc2)c1 [Example I-101] | > 10000 | > 10000 | + (<150) | < 100
7 | COc1ccc(C(C)(C)C)cc1CN[C@H]1[C@H](C(C)(C)C)[C@@H](C(=O)O)N(C(=O)c2cc3occc3n2C)[C@H]1c1ccccc1 [Example I-102] | 1000 to 10000 | 1000 to 10000 | +++ (≥350) | 100 to 200
8 | COc1ccc(C(C)(C)C)cc1CN[C@H]1[C@H](C(C)(C)C)[C@@H](C(=O)O)N(C(=O)C(C)n2cc(Cl)cn2)[C@H]1c1ccccc1 (stereo partly shown) [Example I-103] | 1000 to 10000 | 1000 to 10000 | +++ (≥350) | 100 to 200
9 | COc1ccc(C(C)C)cc1CN[C@H]1[C@H](C(C)(C)C)[C@@H](C(=O)O)N(C(=O)C2CCCCC2)[C@H]1c1ccc(F)cc1 [Example I-109] | 1000 to 10000 | < 1000 | +++ (≥350) | > 200
10 | COc1ncc(C(F)(F)F)cc1CN[C@H]1[C@H](C(C)(C)C)[C@@H](C(=O)O)N(C(=O)C2CCCCC2)[C@H]1c1ccccc1F [Example I-110] | < 1000 | < 1000 | +++ (≥350) | < 100
11 | COc1ccc(C(C)C)cc1CN[C@H]1[C@H](C(C)(C)C)[C@@H](C(=O)O)N(C(=O)C2CCCCC2)[C@H]1c1ccccc1F [Example I-111] | 1000 to 10000 | < 1000 | +++ (≥350) | 100 to 200
12 | COc1ccc(C(C)(C)C)cc1CN[C@H]1[C@H](C(C)(C)C)[C@@H](C(=O)O)N(C(=O)C2CCCCC2)[C@H]1c1ccc(F)cc1 [Example I-112] | < 1000 | < 1000 | +++ (≥350) | > 200
13 | COc1ccc(-c2cncnc2)cc1CN[C@H]1[C@H](C(C)(C)C)[C@@H](C(=O)O)N(C(=O)C2CCCCC2)[C@H]1c1ccccc1 [Example I-114] | 1000 to 10000 | 1000 to 10000 | ++ (≥150 and <350) | < 100
14 | COc1ncc(C2CCC2)cc1CN[C@H]1[C@H](C(C)(C)OC)[C@@H](C(=O)O)N(C(=O)C2CCCCC2)[C@H]1c1ccccc1 [Example I-115] | 1000 to 10000 | < 1000 | +++ (≥350) | > 200
15 | COc1ncc(C2CCCC2)cc1CN[C@H]1[C@H](C(C)(C)OC)[C@@H](C(=O)O)N(C(=O)C2CCCCC2)[C@H]1c1ccccc1 [Example I-116] | < 1000 | < 1000 | +++ (≥350) | 100 to 200
16 | COc1ccc(C2CC3CCC2C3)cc1CN[C@H]1[C@H](C(C)(C)OC)[C@@H](C(=O)O)N(C(=O)C2CCCCC2)[C@H]1c1ccccc1 (stereo partly shown) [Example I-117] | 1000 to 10000 | < 1000 | +++ (≥350) | > 200
17 | COc1ccc(CC2CCCCC2)cc1CN[C@H]1[C@H](C(C)(C)OC)[C@@H](C(=O)O)N(C(=O)C2CCCCC2)[C@H]1c1ccccc1 [Example I-118] | < 1000 | < 1000 | +++ (≥350) | > 200

Row | Structure (SMILES) | EC50 [1] [nM] | EC50 [2] [nM] | Maximum % activity (with co-corrector) | Emax [%]
18 | COc1ccc(C(C)(C)C)cc1CN[C@H]1[C@H](C(C)(C)C)[C@@H](C(=O)O)N(C(=O)OC2CCCC2)[C@H]1c1ccccc1 [Example I-119] | 1000 to 10000 | < 1000 | +++ (≥350) | > 200
19 | COc1ncc(C(F)(F)F)cc1CN[C@H]1[C@H](C(C)(C)C)[C@@H](C(=O)O)N(C(=O)C2CCCCC2)[C@H]1c1cccnc1N(C)C [Example I-120] | 1000 to 10000 | 1000 to 10000 | +++ (≥350) | 100 to 200
20 | COc1ccc(C(F)(F)F)cc1CN[C@H]1[C@H](C(C)(C)C)[C@@H](C(=O)O)N(C(=O)[C@@H]2CCCC(F)(F)C2)[C@H]1c1ccccc1 [Example I-124] | 1000 to 10000 | 1000 to 10000 | +++ (≥350) | < 100
21 | COc1ccc(-c2ccnnc2)cc1CN[C@H]1[C@H](C(C)(C)C)[C@@H](C(=O)O)N(C(=O)C2CCCCC2)[C@H]1c1ccccc1 [Example I-125] | > 10000 | > 10000 | + (<150) | < 100
22 | COc1ccc(-c2ccccc2F)cc1CN[C@H]1[C@H](C(C)(C)C)[C@@H](C(=O)O)N(C(=O)C2CCCCC2)[C@H]1c1ccccc1 [Example I-126] | < 1000 | < 1000 | +++ (≥350) | > 200
23 | COc1ccc(-c2sc(C)nc2C)cc1CN[C@H]1[C@H](C(C)(C)C)[C@@H](C(=O)O)N(C(=O)C2CCCCC2)[C@H]1c1ccccc1 [Example I-127] | 1000 to 10000 | 1000 to 10000 | +++ (≥350) | 100 to 200
24 | COc1ccc(-c2ccccc2C#N)cc1CN[C@H]1[C@H](C(C)(C)C)[C@@H](C(=O)O)N(C(=O)C2CCCCC2)[C@H]1c1ccccc1 [Example I-128] | 1000 to 10000 | 1000 to 10000 | +++ (≥350) | 100 to 200
25 | COc1ccc(C2=CCOCC2)cc1CN[C@H]1[C@H](C(C)(C)C)[C@@H](C(=O)O)N(C(=O)C2CCCCC2)[C@H]1c1ccccc1 [Example I-129] | 1000 to 10000 | 1000 to 10000 | +++ (≥350) | 100 to 200
26 | COc1ncc(C(C)(C)C)cc1CN[C@H]1[C@H](C(C)(C)C)[C@@H](C(=O)O)N(C(=O)C2CCCCC2)[C@H]1c1ccc(F)cc1 [Example I-130] | < 1000 | < 1000 | +++ (≥350) | > 200
27 | COc1ncc(C2CCC2)cc1CN[C@H]1[C@H](C(C)(C)C)[C@@H](C(=O)O)N(C(=O)C2CCCCC2)[C@H]1c1cccnc1N(C)C [Example I-131] | 1000 to 10000 | 1000 to 10000 | +++ (≥350) | > 200
28 | COc1ncc(C2CCCC2)cc1CN[C@H]1[C@H](C(C)(C)C)[C@@H](C(=O)O)N(C(=O)C2CCCCC2)[C@H]1c1cccnc1N(C)C [Example I-132] | 1000 to 10000 | 1000 to 10000 | +++ (≥350) | > 200
29 | COc1ncc(C2CC3CCC2C3)cc1CN[C@H]1[C@H](C(C)(C)C)[C@@H](C(=O)O)N(C(=O)C2CCCCC2)[C@H]1c1cccnc1N(C)C (stereo partly shown) [Example I-133] | 1000 to 10000 | 1000 to 10000 | +++ (≥350) | > 200
30 | COc1ccc(Br)nc1CN[C@H]1[C@H](C(C)(C)C)[C@@H](C(=O)O)N(C(=O)C2CCCCC2)[C@H]1c1ccccc1 [Example I-134] | 1000 to 10000 | 1000 to 10000 | +++ (≥350) | 100 to 200
31 | COc1ncc(C(C)(C)C)cc1CN[C@H]1[C@H](C(C)(C)C)[C@@H](C(=O)O)N(C(=O)C2CCCCC2)[C@H]1c1cccnc1OC [Example I-135] | 1000 to 10000 | 1000 to 10000 | +++ (≥350) | > 200
32 | COc1ccc(C(F)(F)F)cc1CN[C@H]1[C@H](C2(C)CC2)[C@@H](C(=O)O)N(C(=O)C2CCCCC2)[C@H]1c1ccccc1 [Example I-136] | 1000 to 10000 | 1000 to 10000 | +++ (≥350) | 100 to 200
33 | COc1ccc(C(C)(C)C)cc1CN[C@H]1[C@H](C(C)(C)C)[C@@H](C(=O)O)N(C(=O)[C@@H](C)Oc2ccccc2)[C@H]1c1ccccc1 [Example I-137] | 1000 to 10000 | 1000 to 10000 | +++ (≥350) | > 200
34 | COc1ccc(C(C)(C)C)cc1CN[C@H]1[C@H](C(C)(C)C)[C@@H](C(=O)O)N(C(=O)C2CCCCN2S(C)(=O)=O)[C@H]1c1ccccc1 (stereo partly shown) [Example I-138] | 1000 to 10000 | 1000 to 10000 | +++ (≥350) | > 200
